Source: patent publication US9745322B2, “Compounds for the treatment of hepatitis C” (priority 2013, dated 2017)
Read-outs that look alike come from different tables or passages of the source.

System: HCV pseudoparticles, genotype 1a (H77C) E1 and E2 envelope
Experiment: HCV pseudoparticle infection assay (luciferase reporter, Huh7 cells)
Type: cell-based, HCV genotype 1a (H77C)
Details: Hepatitis C virus, Huh-7, 48 h, read-out: EC50 (nM) 1a (H77C), HCV pseudoparticles genotype 1a H77C, Huh7 cells, luciferase 2 days after infection

## COC(=O)[C@H](CNC(=O)C(=O)N(C)C)NC(=O)c1ccc2cc1OCCCCCCOc1ccc(cc1)CNc1nc(nc(OCC(F)(F)F)n1)N2 [Example 1001]
Class symbol
  EC50: 0.1 to 100 nM
Numeric value
  EC50: 0.624 nM

## CNC(=O)C(=O)NC[C@H](NC(=O)c1ccc2cc1OCCCCCCOc1ccc(cc1)CNc1nc(nc(OCC(F)(F)F)n1)N2)C(=O)OC [Example 1002]
Class symbol
  EC50: 0.1 to 100 nM

## COC(=O)[C@H](CNC(=O)C(N)=O)NC(=O)c1ccc2cc1OCCCCCCOc1ccc(cc1)CNc1nc(nc(OCC(F)(F)F)n1)N2 [Example 1003]
Class symbol
  EC50: 0.1 to 100 nM

## CN(C)C(=O)C(=O)NC[C@H](NC(=O)c1ccc2cc1OCCCCCCOc1ccc(cc1)CNc1nc(nc(OCC(F)(F)F)n1)N2)C(=O)O [Example 1004]
Class symbol
  EC50: 0.1 to 100 nM

## CNC(=O)C(=O)NC[C@H](NC(=O)c1ccc2cc1OCCCCCCOc1ccc(cc1)CNc1nc(nc(OCC(F)(F)F)n1)N2)C(=O)O [Example 1005]
Class symbol
  EC50: 0.1 to 100 nM
Numeric value
  EC50: 2.47 nM
